Data taken from ChEMBL document CHEMBL1132520, “Antimalarial activity of 3-hydroxyalkyl-2-methylene-propionic acid derivatives” (1999).
The source made the active and inactive calls. The calls are words filed in the database; no cut-off is given here.

Legend:
Plasmodium falciparum [1] = assay: In vitro inhibition of Plasmodium falciparum at 2.5 uM/well dose at 72 hrs in total parasite growth assay; format: functional
Mus musculus [2] = assay: In vivo antimalarial activity against Plasmodium berghei in mice (Mus musculus); Inactive; format: functional, organism-based
Plasmodium falciparum [3] = assay: In vitro inhibition of Plasmodium falciparum at 0.25 uM/well dose at 72 hrs in total parasite growth assay; format: functional
Plasmodium falciparum [4] = assay: In vitro antimalarial activity for Plasmodium falciparum at 1 uM/well dose at 24 hrs in Schizont maturation assay; format: functional
Plasmodium falciparum [5] = assay: In vitro antimalarial activity for Plasmodium falciparum at 2.5 uM/well dose at 24 hrs in Schizont maturation assay; format: functional
Plasmodium falciparum [6] = assay: In vitro antimalarial activity for Plasmodium falciparum at 100 uM/well dose at 24 hrs in Schizont maturation assay; format: functional
Mus musculus [7] = assay: Antimalarial activity against Plasmodium berghei evaluated in terms of mean survival time for mice (Mus musculus) at a dose of 160 mg/kg; format: functional
Plasmodium falciparum [8] = assay: In vitro inhibition of Plasmodium falciparum at 50 uM/well dose at 72 hrs in total parasite growth assay; format: functional
Plasmodium falciparum [9] = assay: In vitro antimalarial activity for Plasmodium falciparum at 10 uM/well dose at 24 hrs in Schizont maturation assay; format: functional
Plasmodium falciparum [10] = assay: In vitro inhibition of Plasmodium falciparum at 20 uM/well dose at 72 hrs in total parasite growth assay; Not determined; format: functional
Plasmodium falciparum [11] = assay: In vitro antimalarial activity for Plasmodium falciparum at 50 uM/well dose at 24 hrs in Schizont maturation assay; format: functional
Plasmodium falciparum [12] = assay: In vitro inhibition of Plasmodium falciparum at 0.5 uM/well dose at 72 hrs in total parasite growth assay; format: functional
Plasmodium falciparum [13] = assay: In vitro inhibition of Plasmodium falciparum at 5 uM/well dose at 72 hrs in total parasite growth assay; format: functional
Plasmodium falciparum [14] = assay: In vitro antimalarial activity for Plasmodium falciparum at 5 uM/well dose at 24 hrs in Schizont maturation assay; format: functional
Plasmodium falciparum [15] = assay: In vitro antimalarial activity for Plasmodium falciparum at 0.10 uM/well dose at 24 hrs in Schizont maturation assay; format: functional
Plasmodium falciparum [16] = assay: In vitro inhibition of Plasmodium falciparum at 10 uM/well dose at 72 hrs in total parasite growth assay; format: functional
Plasmodium falciparum [17] = assay: In vitro antimalarial activity for Plasmodium falciparum at 0.25 uM/well dose at 24 hrs in Schizont maturation assay; format: functional
Plasmodium falciparum [18] = assay: In vitro inhibition of Plasmodium falciparum at 1.0 uM/well dose at 72 hrs in total parasite growth assay; format: functional
Mus musculus [19] = assay: Anti-malarial activity against Plasmodium berghei evaluated in terms of mean survival time for mice (Mus musculus) at a dose of 20 mg/kg; format: functional
Mus musculus [20] = assay: Antimalarial activity against Plasmodium berghei evaluated in terms of mean survival time for mice (Mus musculus) at a dose of 40 mg/kg; format: functional
Mus musculus [21] = assay: Antimalarial activity against Plasmodium berghei evaluated in terms of mean survival time for mice (Mus musculus) at a dose of 80 mg/kg; format: functional
Plasmodium falciparum [22] = assay: In vitro antimalarial activity for Plasmodium falciparum at 0.50 uM/well dose at 24 hrs in Schizont maturation assay; format: functional
Plasmodium falciparum [23] = assay: In vitro inhibition of Plasmodium falciparum at 100 uM/well dose at 72 hrs in total parasite growth assay; format: functional
Plasmodium falciparum [24] = assay: In vitro antimalarial activity for Plasmodium falciparum at 20 uM/well dose at 24 hrs in Schizont maturation assay; format: functional
Plasmodium falciparum [25] = assay: In vitro antimalarial activity for Plasmodium falciparum at 500 uM/well dose at 24 hrs in Schizont maturation assay; format: functional
Plasmodium falciparum [26] = assay: In vitro inhibition of Plasmodium falciparum at 25 uM/well dose at 72 hrs in total parasite growth assay; format: functional
Plasmodium falciparum [27] = assay: In vitro inhibition of chloroquine-resistant Plasmodium falciparum at 0.5 uM/well dose at 72 hrs in total parasite growth assay; format: functional
Plasmodium falciparum [28] = assay: In vitro antimalarial activity for chloroquine-resistant Plasmodium falciparum at 100 uM/well dose at 24 hrs in Schizont maturation assay; format: functional
Plasmodium falciparum [29] = assay: In vitro antimalarial activity for chloroquine-resistant Plasmodium falciparum at 5 uM/well dose at 24 hrs in Schizont maturation assay; format: functional
Plasmodium falciparum [30] = assay: In vitro inhibition of chloroquine-resistant Plasmodium falciparum at 1.0 uM/well dose at 72 hrs in total parasite growth assay; format: functional
Plasmodium falciparum [31] = assay: In vitro antimalarial activity for chloroquine-resistant Plasmodium falciparum at 50 uM/well dose at 24 hrs in Schizont maturation assay; format: functional
Plasmodium falciparum [32] = assay: In vitro antimalarial activity for chloroquine-resistant Plasmodium falciparum at 0.25 uM/well dose at 24 hrs in Schizont maturation assay; format: functional
Plasmodium falciparum [33] = assay: In vitro inhibition of chloroquine-resistant Plasmodium falciparum at 0.25 uM/well dose at 72 hrs in total parasite growth assay; format: functional
Plasmodium falciparum [34] = assay: In vitro antimalarial activity for chloroquine-resistant Plasmodium falciparum at 2.5 uM/well dose at 24 hrs in Schizont maturation assay; format: functional
Mus musculus [35] = assay: In vivo anti-malarial activity against Plasmodium berghei in mice (Mus musculus) at a dose of 160 mg/kg; Active; format: functional, organism-based; set-up: dose 160 mg/kg
Plasmodium falciparum [36] = assay: In vitro antimalarial activity for chloroquine-resistant Plasmodium falciparum at 0.10 uM/well dose at 24 hrs in Schizont maturation assay; format: functional
Plasmodium falciparum [37] = assay: In vitro inhibition of Plasmodium falciparum at 20 uM/well dose at 72 hrs in total parasite growth assay; format: functional
Plasmodium falciparum [38] = assay: In vitro antimalarial activity for chloroquine-resistant Plasmodium falciparum at 20 uM/well dose at 24 hrs in Schizont maturation assay; format: functional
Mus musculus [39] = assay: In vivo anti-malarial activity against Plasmodium berghei in mice (Mus musculus) at a dose of 80 mg/kg; Active; format: functional, organism-based; set-up: dose 80 mg/kg
Plasmodium falciparum [40] = assay: In vitro antimalarial activity for chloroquine-resistant Plasmodium falciparum at 0.5 uM/well dose at 24 hrs in Schizont maturation assay; format: functional
Plasmodium falciparum [41] = assay: In vitro antimalarial activity for chloroquine-resistant Plasmodium falciparum at 1 uM/well dose at 24 hrs in Schizont maturation assay; format: functional
Plasmodium falciparum [42] = assay: In vitro antimalarial activity for chloroquine-resistant Plasmodium falciparum at 10 uM/well dose at 24 hrs in Schizont maturation assay; format: functional

## C=C(C(=O)OC)C(O)c1ccccc1 (stereo unspecified)
Plasmodium falciparum [1]
  PGI: 62.5%
Mus musculus [2]
  Activity: inactive
Plasmodium falciparum [3]
  PGI: 0%
Plasmodium falciparum [4]
  inhibition at 1 µM: 43%
Plasmodium falciparum [5]
  inhibition at 2.5 µM: 64%
Plasmodium falciparum [6]
  inhibition at 100 µM: 100%
Mus musculus [7]
  Mean survival time: 12 days
Plasmodium falciparum [8]
  PGI: 100%
Plasmodium falciparum [9]
  inhibition at 10 µM: 100%
Plasmodium falciparum [10]
  PGI: 100%
Plasmodium falciparum [11]
  inhibition at 50 µM: 100%
Plasmodium falciparum [12]
  PGI: 7.5%
Plasmodium falciparum [13]
  PGI: 100%
Plasmodium falciparum [14]
  inhibition at 5 µM: 93%
Plasmodium falciparum [15]
  inhibition at 0.1 µM: 0%
Plasmodium falciparum [16]
  PGI: 100%
Plasmodium falciparum [17]
  inhibition at 0.25 µM: 0%
Plasmodium falciparum [18]
  PGI: 40%
Mus musculus [19]
  Mean survival time: 6 days
Mus musculus [20]
  Mean survival time: 7 days
Mus musculus [21]
  Mean survival time: 10.2 days
Plasmodium falciparum [22]
  inhibition at 0.5 µM: 7%
Plasmodium falciparum [23]
  PGI: 100%
Plasmodium falciparum [24]
  inhibition at 20 µM: 100%

## C=C(C(=O)OC)C(O)c1ccc([N+](=O)[O-])cc1 (stereo unspecified)
Plasmodium falciparum [4]
  inhibition at 1 µM: 2.6%
Plasmodium falciparum [6]
  inhibition at 100 µM: 81.6%
Plasmodium falciparum [25]
  inhibition at 500 µM: 100%
Plasmodium falciparum [9]
  inhibition at 10 µM: 44.7%
Plasmodium falciparum [11]
  inhibition at 50 µM: 52.6%
Plasmodium falciparum [14]
  inhibition at 5 µM: 18.4%

## C=C(C(=O)OC)C(O)/C=C(\C)CCC=C(C)C (stereo unspecified)
Mus musculus [2]
  Activity: inactive
Mus musculus [7]
  Mean survival time: 11.4 days
Mus musculus [19]
  Mean survival time: 7.2 days
Mus musculus [20]
  Mean survival time: 8.4 days
Mus musculus [21]
  Mean survival time: 9.6 days

## C=C(C#N)C(O)c1ccco1 (stereo unspecified)
Plasmodium falciparum [1]
  PGI: 40%
Plasmodium falciparum [26]
  PGI: 84%
Plasmodium falciparum [12]
  PGI: 14%
Plasmodium falciparum [13]
  PGI: 68.6%
Plasmodium falciparum [16]
  PGI: 79%
Plasmodium falciparum [18]
  PGI: 31.4%
Plasmodium falciparum [23]
  PGI: 100%

## C=C(C#N)C(O)c1ccc([N+](=O)[O-])cc1 (stereo unspecified)
Plasmodium falciparum [1]
  PGI: 100%
Plasmodium falciparum [26]
  PGI: 100%
Plasmodium falciparum [27]
  PGI: 82%
Plasmodium falciparum [3]
  PGI: 83%
Plasmodium falciparum [4]
  inhibition at 1 µM: 75.2%
Plasmodium falciparum [28]
  inhibition at 100 µM: 100%
Plasmodium falciparum [5]
  inhibition at 2.5 µM: 84%
Plasmodium falciparum [6]
  inhibition at 100 µM: 100%
Plasmodium falciparum [29]
  inhibition at 5 µM: 100%
Mus musculus [7]
  Mean survival time: 14.4 days
Plasmodium falciparum [30]
  PGI: 94%
Plasmodium falciparum [25]
  inhibition at 500 µM: 100%
Plasmodium falciparum [8]
  PGI: 100%
Plasmodium falciparum [9]
  inhibition at 10 µM: 100%
Plasmodium falciparum [31]
  inhibition at 50 µM: 100%
Plasmodium falciparum [11]
  inhibition at 50 µM: 100%
Plasmodium falciparum [12]
  PGI: 92%
Plasmodium falciparum [32]
  inhibition at 0.25 µM: 58%
Plasmodium falciparum [13]
  PGI: 100%
Plasmodium falciparum [14]
  inhibition at 5 µM: 100%
Plasmodium falciparum [15]
  inhibition at 0.1 µM: 41.2%
Plasmodium falciparum [16]
  PGI: 100%
Plasmodium falciparum [33]
  PGI: 73%
Plasmodium falciparum [17]
  inhibition at 0.25 µM: 56.4%
Plasmodium falciparum [34]
  inhibition at 2.5 µM: 100%
Mus musculus [35]
  Activity: Active
Plasmodium falciparum [36]
  inhibition at 0.1 µM: 47.7%
Plasmodium falciparum [37]
  PGI: 100%
Plasmodium falciparum [18]
  PGI: 100%
Plasmodium falciparum [38]
  inhibition at 20 µM: 100%
Mus musculus [19]
  Mean survival time: 9.4 days
Mus musculus [20]
  Mean survival time: 11.8 days
Mus musculus [39]
  Activity: Active
Mus musculus [21]
  Mean survival time: 12.8 days
Plasmodium falciparum [22]
  inhibition at 0.5 µM: 68%
Plasmodium falciparum [23]
  PGI: 100%
Plasmodium falciparum [40]
  inhibition at 0.5 µM: 75%
Plasmodium falciparum [24]
  inhibition at 20 µM: 100%
Plasmodium falciparum [41]
  inhibition at 1 µM: 86%
Plasmodium falciparum [42]
  inhibition at 10 µM: 100%

## C=C(C#N)C(O)c1cc(OC)c(OC)c(OC)c1 (stereo unspecified)
Plasmodium falciparum [1]
  PGI: 100%
Plasmodium falciparum [26]
  PGI: 100%
Plasmodium falciparum [27]
  PGI: 81%
Plasmodium falciparum [3]
  PGI: 73%
Plasmodium falciparum [4]
  inhibition at 1 µM: 64%
Plasmodium falciparum [28]
  inhibition at 100 µM: 100%
Plasmodium falciparum [5]
  inhibition at 2.5 µM: 76.5%
Plasmodium falciparum [6]
  inhibition at 100 µM: 100%
Plasmodium falciparum [29]
  inhibition at 5 µM: 81%
Mus musculus [7]
  Mean survival time: 12.4 days
Plasmodium falciparum [30]
  PGI: 90%
Plasmodium falciparum [25]
  inhibition at 500 µM: 100%
Plasmodium falciparum [8]
  PGI: 100%
Plasmodium falciparum [9]
  inhibition at 10 µM: 100%
Plasmodium falciparum [31]
  inhibition at 50 µM: 100%
Plasmodium falciparum [11]
  inhibition at 50 µM: 100%
Plasmodium falciparum [12]
  PGI: 86%
Plasmodium falciparum [32]
  inhibition at 0.25 µM: 30%
Plasmodium falciparum [13]
  PGI: 100%
Plasmodium falciparum [14]
  inhibition at 5 µM: 82.4%
Plasmodium falciparum [15]
  inhibition at 0.1 µM: 0%
Plasmodium falciparum [16]
  PGI: 100%
Plasmodium falciparum [33]
  PGI: 70%
Plasmodium falciparum [17]
  inhibition at 0.25 µM: 30%
Plasmodium falciparum [34]
  inhibition at 2.5 µM: 69%
Mus musculus [35]
  Activity: Active
Plasmodium falciparum [36]
  inhibition at 0.1 µM: 4.2%
Plasmodium falciparum [37]
  PGI: 100%
Plasmodium falciparum [18]
  PGI: 94%
Plasmodium falciparum [38]
  inhibition at 20 µM: 100%
Mus musculus [19]
  Mean survival time: 6 days
Mus musculus [20]
  Mean survival time: 7.6 days
Mus musculus [21]
  Mean survival time: 10.4 days
Plasmodium falciparum [22]
  inhibition at 0.5 µM: 42.4%
Plasmodium falciparum [23]
  PGI: 100%
Plasmodium falciparum [40]
  inhibition at 0.5 µM: 48.6%
Plasmodium falciparum [24]
  inhibition at 20 µM: 100%
Plasmodium falciparum [41]
  inhibition at 1 µM: 65%
Plasmodium falciparum [42]
  inhibition at 10 µM: 100%
